Assay results taken from patent publication US20250034216A1, “STEREOSELECTIVE COVALENT LIGANDS FOR ONCOGENIC AND IMMUNOLOGICAL PROTEINS” (The Scripps Research Institute, priority 2021, published 2025).

Assays:
DCUN1D4_C219 = biological target: T1, DCUN1D4_C219 (Homo sapiens, UniProt Q92564); assay: IA-DTB cysteine engagement; assay type: binding; details: 22Rv1 cells, 20 μM probe, 1 h, relative to DMSO
T1 construct: endogenous in cells; host or cells: 22Rv1
T1 sequence (Q92564 1-292): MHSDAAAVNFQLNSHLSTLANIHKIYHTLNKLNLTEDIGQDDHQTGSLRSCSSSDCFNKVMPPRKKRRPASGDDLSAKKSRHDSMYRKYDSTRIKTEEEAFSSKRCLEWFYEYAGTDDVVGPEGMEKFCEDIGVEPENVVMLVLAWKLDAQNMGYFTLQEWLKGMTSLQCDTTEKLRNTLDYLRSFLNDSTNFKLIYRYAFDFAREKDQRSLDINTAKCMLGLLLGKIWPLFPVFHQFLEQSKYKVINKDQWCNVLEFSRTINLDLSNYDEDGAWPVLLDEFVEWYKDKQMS
Method in brief: (§1)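 Cells were treated in situ with electrophilic probes, then lysed, and the lysates (2 mg/mL protein) were labeled with IA-DTB for 1 h at ambient temperature. After reduction, alkylation and trypsin digestion, labeled peptides were streptavidin-enriched, TMT-labeled and fractionated. Engagement ratios are probe vs DMSO reporter intensities, averaged across replicates.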

SLC25A20_C89 = biological target: T2, SLC25A20_C89 (Homo sapiens, UniProt O43772); assay: IA-DTB cysteine engagement; assay type: binding; details: 22Rv1 cells, 20 μM probe, 1 h, relative to DMSO
T2 construct: endogenous in cells; host or cells: 22Rv1
T2 sequence (O43772 1-301): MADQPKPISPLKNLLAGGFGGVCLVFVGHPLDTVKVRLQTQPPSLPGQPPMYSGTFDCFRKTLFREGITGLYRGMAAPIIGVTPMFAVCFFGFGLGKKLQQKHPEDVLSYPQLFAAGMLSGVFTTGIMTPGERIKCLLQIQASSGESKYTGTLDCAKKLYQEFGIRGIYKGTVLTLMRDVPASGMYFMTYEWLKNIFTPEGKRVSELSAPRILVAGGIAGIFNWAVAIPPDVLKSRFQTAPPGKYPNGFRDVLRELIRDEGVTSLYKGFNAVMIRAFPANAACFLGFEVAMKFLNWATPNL
Method in brief: as §1

SMILES	% engagement DCUN1D4_C219 (DCUN1D4_C219) [%]	% engagement SLC25A20_C89 (SLC25A20_C89) [%]
C=CC(=O)N1C[C@@H](c2ccc(Br)cc2)[C@H]1C(=O)Nc1cccc2cccnc12 [MY-1A, (2S,3R)-1-acryloyl-3-(4-bromophenyl)-N-(quinolin-8-yl)azetidine-2-carboxamide]	45.5	9.5
C=CC(=O)N1C[C@H](c2ccc(Br)cc2)[C@@H]1C(=O)Nc1cccc2cccnc12 [MY-1B, (2R,3S)-1-acryloyl-3-(4-bromophenyl)-N-(quinolin-8-yl)azetidine-2-carboxamide]	82.5	94
C=CC(=O)N1C[C@H](c2ccc(Br)cc2)[C@H]1C(=O)Nc1cccc2cccnc12 [MY-3A, (2S,3S)-1-acryloyl-3-(4-bromophenyl)-N-(quinolin-8-yl)azetidine-2-carboxamide]	33.5	45
C=CC(=O)N1C[C@H](c2ccc(Br)cc2)[C@H]1C(=O)Nc1cccc2cccnc12 [MY-3B, (2S,3S)-1-acryloyl-3-(4-bromophenyl)-N-(quinolin-8-yl)azetidine-2-carboxamide]	−17	91
